≈ marks a conversion by molar mass, not a printed value. Non-standard residues stand in square brackets, D forms with d. Residues, ends and D or L forms follow the SMILES beside them. ξ: configuration not given here. Ac6c = NC1(C(=O)O)CCCCC1; Ac5c = NC1(C(=O)O)CCCC1; ξDap = NCC(N)C(=O)O
Key:
[1] = tested on: Mycobacterium tuberculosis; assay: Antibacterial activity against Mycobacterium tuberculosis H37Ra ATCC 2517 by two fold serial dilution method; assay type: functional
Staphylococcus aureus [2] = assay: Antibacterial activity against Staphylococcus aureus Seattle 1945 ATCC 25923 by two fold serial dilution method; assay type: functional
[3] = Antibacterial activity against Clostridium difficile VIP 10463 ATCC 43255 by two fold serial dilution method; assay type: functional, Clostridium difficile ATCC 43255; conditions: Clostridioides difficile
Klebsiella aerogenes = assay: Antibacterial activity against carbapenem-resistant Enterobacter aerogenes NCDC819-56 ATCC 13048 by two fold serial dilution method; assay type: functional
[4] = Antibacterial activity against carbapenem-resistant Klebsiella pneumoniae K6 ATCC 700603 by two fold serial dilution method; assay type: functional, Klebsiella pneumoniae 700603
[5] = Antibacterial activity against Salmonella enterica LT2 Typhimurium ATCC 15277 by two fold serial dilution method; assay type: functional
Streptococcus pneumoniae = assay: Antibacterial activity against Streptococcus pneumoniae 262 ATCC 49619 by two fold serial dilution method; assay type: functional
Staphylococcus aureus [6] = assay: Antibacterial activity against methicillin-resistant Staphylococcus aureus USA 300 NRS 384 by two fold serial dilution method; assay type: functional
[7] = tested on: Burkholderia pseudomallei; assay: Antibacterial activity against Burkholderia pseudomallei AHS 1 NCTC 8016 by two fold serial dilution method; assay type: functional
Enterococcus faecalis = assay: Antibacterial activity against Enterococcus faecalis Portland ATCC 29212 by two fold serial dilution method; assay type: functional; conditions: ATCC 29212 Portland
[8] = Antibacterial activity against Francisella tularensis SCHU S4 NR-643 by two fold serial dilution method; assay type: functional
Acinetobacter baumannii = assay: Antibacterial activity against Acinetobacter baumannii B5W71 ATCC 15149 by two fold serial dilution method; assay type: functional
[9] = Antibacterial activity against Yersinia pestis CO92 NR641 by two fold serial dilution method; assay type: functional
Pseudomonas aeruginosa = assay: Antibacterial activity against Pseudomonas aeruginosa Boston 41501 ATCC 27853 by two fold serial dilution method; assay type: functional
[10] = Antibacterial activity against Bacillus anthracis Ames NR-3838 by two fold serial dilution method; assay type: functional, Bacillus anthracis str. Ames
Neisseria gonorrhoeae = assay: Antibacterial activity against Neisseria gonorrhoeae F-18 ATCC 49226 by two fold serial dilution method; assay type: functional
[11] = Antiproliferative activity against human UACC62 cells after 72 hrs by Celltiter-Glo luminescent cell viability assay; assay type: functional, cell-based; conditions: UACC-62, 72 h
[12] = Antiproliferative activity against human PC3 cells after 72 hrs by Celltiter-Glo luminescent cell viability assay; assay type: functional, cell-based; conditions: PC-3, 72 h
CFPAC-1 = assay: Antiproliferative activity against human CFPAC-1 cells after 72 hrs by Celltiter-Glo luminescent cell viability assay; assay type: functional, cell-based; conditions: CFPAC-1, 72 h
[13] = Antiproliferative activity against human DLD1 cells after 72 hrs by Celltiter-Glo luminescent cell viability assay; assay type: functional, cell-based; conditions: DLD-1, 72 h
NCI-H69 = assay: Antiproliferative activity against human NCI-H69 cells after 72 hrs by Celltiter-Glo luminescent cell viability assay; assay type: functional, cell-based; conditions: NCI-H69, 72 h
MCF7 = assay: Antiproliferative activity against human MCF7 cells after 72 hrs by Celltiter-Glo luminescent cell viability assay; assay type: functional, cell-based; conditions: MCF7, 72 h
A498 = assay: Antiproliferative activity against human A498 cells after 72 hrs by Celltiter-Glo luminescent cell viability assay; assay type: functional, cell-based; conditions: A498, 72 h
[14] = Antiproliferative activity against human IGROV1 cells after 72 hrs by Celltiter-Glo luminescent cell viability assay; assay type: functional, cell-based; conditions: IGROV-1, 72 h
[15] = Antiproliferative activity against human COLO205 cells after 72 hrs by Celltiter-Glo luminescent cell viability assay; assay type: functional, cell-based; conditions: COLO 205, 72 h
[16] = Antiproliferative activity against human MIAPaCa2 cells after 72 hrs by Celltiter-Glo luminescent cell viability assay; assay type: functional, cell-based; conditions: MIA PaCa-2, 72 h
A549 = assay: Antiproliferative activity against human A549 cells after 72 hrs by Celltiter-Glo luminescent cell viability assay; assay type: functional, cell-based; conditions: A549, 72 h
RL = assay: Antiproliferative activity against human RL cells after 72 hrs by Celltiter-Glo luminescent cell viability assay; assay type: functional, cell-based

Row | SMILES | MIC [1] | MIC (Staphylococcus aureus [2]) | MIC [3] | MIC (Klebsiella aerogenes) | MIC [4] | MIC [5] | MIC (Streptococcus pneumoniae) | MIC (Staphylococcus aureus [6]) | MIC [7] | MIC (Enterococcus faecalis) | MIC [8] | MIC (Acinetobacter baumannii) | MIC [9] | MIC (Pseudomonas aeruginosa) | MIC [10] | MIC (Neisseria gonorrhoeae) | IC50 [11] | IC50 [12] | IC50 (CFPAC-1) | IC50 [13] | other results
1 | CN[C@@H]1[C@H](O[C@H]2[C@H](O[C@H]3[C@H](O)[C@@H](O)[C@H](N=C(N)N)[C@@H](O)[C@@H]3N=C(N)N)O[C@@H](C)[C@]2(O)C=O)O[C@@H](CO)[C@H](O)[C@H]1O [STREPTOMYCIN] | 3.4 µM (≈ 1.98 µg/mL) |  |  |  |  |  |  |  |  |  |  |  |  |  |  |  |  |  |  |  | 
2 | CC(=O)NCC(=O)N[C@@H](Cc1ccccc1)C(=O)NC1(C(=O)NCC(=O)NC2(C(=O)NC(CN)C(=O)NC3(C(=O)NCC(=O)NC4(C(=O)N[C@@H](Cc5ccccc5)C(=O)NC5(C(=O)NCC(=O)NC6(C(=O)NCC(=O)NC(CN)C(=O)NC7(C(=O)NC(CN)C(=O)NC(CN)C(=O)NC(CN)C(=O)NC(CN)C(N)=O)CCCCC7)CCCCC6)CCCCC5)CCCCC4)CCCCC3)CCCCC2)CCCCC1 (stereo not given in full) (Ac-GF[Ac6c]G[Ac6c][ξDap][Ac6c]G[Ac6c]F[Ac6c]G[Ac6c]G[ξDap][Ac6c][ξDap][ξDap][ξDap][ξDap]-NH2) | 24.6 µM (≈ 50 µg/mL) | 6.16 µM (≈ 12.5 µg/mL) | 3.08 µM (≈ 6.26 µg/mL) | 1.54 µM (≈ 3.13 µg/mL) | 3.08 µM (≈ 6.26 µg/mL) | 24.6 µM (≈ 50 µg/mL) | 24.6 µM (≈ 50 µg/mL) | 6.16 µM (≈ 12.5 µg/mL) | > 49 µM | 3.08 µM (≈ 6.26 µg/mL) | 49.2 µM (≈ 99.9 µg/mL) | > 48 µM | > 49 µM | 3.08 µM (≈ 6.26 µg/mL) | 6.16 µM (≈ 12.5 µg/mL) | 6.16 µM (≈ 12.5 µg/mL) |  |  |  |  | 
3 | CC(=O)NCC(=O)N[C@@H](Cc1ccccc1)C(=O)NC1(C(=O)NCC(=O)NC2(C(=O)N[C@@H](CCCCN)C(=O)NC3(C(=O)NCC(=O)NC4(C(=O)N[C@@H](Cc5ccccc5)C(=O)NC5(C(=O)NCC(=O)NC6(C(=O)NCC(=O)N[C@@H](CCCCN)C(=O)NC7(C(=O)N[C@@H](CCCCN)C(=O)N[C@@H](CCCCN)C(=O)N[C@@H](CCCCN)C(=O)N[C@@H](CCCCN)C(N)=O)CCCC7)CCCCC6)CCCC5)CCCCC4)CCCC3)CCCCC2)CCCC1 (Ac-GF[Ac5c]G[Ac6c]K[Ac5c]G[Ac6c]F[Ac5c]G[Ac6c]GK[Ac5c]KKKK-NH2) | 22.4 µM (≈ 49.9 µg/mL) | 44.5 µM (≈ 99.1 µg/mL) | 1.4 µM (≈ 3.12 µg/mL) | > 45 µM | 44.8 µM (≈ 99.9 µg/mL) | 11.2 µM (≈ 25 µg/mL) | > 45 µM | > 45 µM | > 45 µM | > 45 µM | 22.4 µM (≈ 49.9 µg/mL) | > 45 µM | > 45 µM | 5.61 µM (≈ 12.5 µg/mL) | 22.4 µM (≈ 49.9 µg/mL) | 11.2 µM (≈ 25 µg/mL) | > 7.5 µM | > 7.5 µM | > 7.5 µM | > 7.5 µM | IC50 (NCI-H69): 5.9 µM; IC50 (MCF7): > 7.5 µM; IC50 (A498): > 7.5 µM; IC50 [14]: > 7.5 µM; IC50 [15]: > 7.5 µM; IC50 [16]: > 7.5 µM; IC50 (A549): > 7.5 µM; IC50 (RL): 6.7 µM
4 | CC(=O)NCC(=O)N[C@@H](Cc1ccccc1)C(=O)NC1(C(=O)NCC(=O)NC2(C(=O)N[C@@H](CCCCN)C(=O)N[C@@H](CCCCN)C(=O)NC3(C(=O)NCC(=O)NC4(C(=O)N[C@@H](Cc5ccccc5)C(=O)NC5(C(=O)NCC(=O)NC6(C(=O)NCC(=O)N[C@@H](CCCCN)C(=O)N[C@@H](CCCCN)C(=O)NC7(C(=O)N[C@@H](CCCCN)C(=O)N[C@@H](CCCCN)C(=O)N[C@@H](CCCCN)C(=O)N[C@@H](CCCCN)C(N)=O)CCCCC7)CCCCC6)CCCCC5)CCCCC4)CCCCC3)CCCCC2)CCCCC1 (Ac-GF[Ac6c]G[Ac6c]KK[Ac6c]G[Ac6c]F[Ac6c]G[Ac6c]GKK[Ac6c]KKKK-NH2) | 4.92 µM (≈ 12.5 µg/mL) | 19.7 µM (≈ 50 µg/mL) | 2.46 µM (≈ 6.25 µg/mL) | > 39 µM | 19.7 µM (≈ 50 µg/mL) | 2.46 µM (≈ 6.25 µg/mL) | 39.4 µM (≈ 100 µg/mL) | 39.4 µM (≈ 100 µg/mL) | > 39 µM | 19.7 µM (≈ 50 µg/mL) | 19.7 µM (≈ 50 µg/mL) | 2.46 µM (≈ 6.25 µg/mL) | > 39 µM | 2.46 µM (≈ 6.25 µg/mL) | 2.46 µM (≈ 6.25 µg/mL) | 0.61 µM (≈ 1.55 µg/mL) | 2.6 µM | > 7.5 µM | > 7.5 µM | > 7.5 µM | IC50 (NCI-H69): 1.9 µM; IC50 (MCF7): 6.2 µM; IC50 (A498): 3 µM; IC50 [14]: > 7.5 µM; IC50 [15]: 5.4 µM; IC50 [16]: 7.3 µM; IC50 (A549): 7.2 µM; IC50 (RL): 2 µM
5 | CN(C)[C@@H]1C(O)=C(C(N)=O)C(=O)[C@@]2(O)C(O)=C3C(=O)c4c(O)cccc4[C@@](C)(O)[C@H]3C[C@@H]12 [TETRACYCLINE] |  |  |  |  |  |  |  |  | 4.5 µM (≈ 2 µg/mL) |  |  |  |  |  |  | 2.25 µM (≈ 1 µg/mL) |  |  |  |  | 

— ChEMBL document CHEMBL3822432, “Antibacterial and anticancer activity of a series of novel peptides incorporating cyclic tetra-substituted C(α) amino acids” (Bioorg Med Chem, 2016)
